Series [1] in a line: spinal fixation time (spinal section 35 minutes after onset of asymmetry). In kind it is in vivo, rat. The text has this: (b) The action on mnemic processes is also shown by the reduction of the spinal fixation time, a test which has been described in literature (T. J. CHAMBERLAIN et al., J.Neuro-Physiol.26, (1963,no. 4), 662-673; C. GIURGEA and F. MOURAVIEFF-LESUISSE, Arch.Int.Pharmacodyn.Therap.191, (1971,no. 2), 279) as an elementary memory model and which provides pharmacological reactivity in good correlation with clinical physiopathology. In the rat, after unilateral lesion of the cerebellum, there is a postural asymmetry of the hind paws. This asymmetry may persist, even after spinal section, if the animal has passed a sufficiently long time in this position.
This time, which is called the spinal fixation time, is 45 minutes under the experimental conditions applied here.
On the other hand, if the spinal section is performed before the expiry of this period of time, for example 35 minutes after the onset of the asymmetry, the latter disappears.
No animal treated with placebos retains asymmetry under these conditions.
Inversely, any product which allows the rats to retain the asymmetry (thus effecting spinal fixation) when the spinal section is performed after 35 minutes, is considered to be active.
The compounds were all tested at a dosage of […]. The minimum active doses were not sought, except for compound No. 1 and for piracetam. […] By "number of animals" is to be understood the number of animals which responded positively to the test, in relation to the number of animals tested at the indicated dose: […]

The nature of series [2]: active avoidance test (memory retention; paw withdrawal reaction threshold). In kind it is in vivo, rat. To be noted: for minimal effective dose: sc. The source says: The pressure at which the withdrawal reaction takes place is called the reaction threshold. This threshold is expressed by the figure read on a scale graduated in cm of the apparatus used (Analgesy-meter Ugo Basile, Milan) and thus corresponds to the minimum pressure which brings about withdrawal when applied to the animal's paw.

The nature of series [3]: Toxicity by intraperitoneal administration (Irwin's test). In kind it is in vivo. As to conditions: for Dose mg/kg (dose which brings about the death of one animal out of eight in Irwin's test): mouse. The text has this:
The compounds tested have a remarkably low toxicity.
*Dose which brings about the death of one animal out of eight in Irwin's
test (S. IRWIN, Gordon Research Conference on Medicinal Chemistry, Colby
Junior College, New London, 1959).

Series [4] is described as follows: Toxicity when administered intravenously or orally (LD50). As to conditions: in vivo, rat. The source says: Furthermore, in the rat, the compounds tested also have a low toxicity when administered intravenously or orally, as shown by the results given in the following Table V: […]
Series [5] in a line: Protection against aggressions of the hypoxic type (mortality induced by oxydipentonium chloride). In kind it is in vivo, mice. As to conditions: Mus musculus, ip, 1 h, read-out: Proportion of survivors, Animals treated. How it is done: Protection against aggressions of the hypoxic type was shown by a reduction of mortality induced by a curarizer, the action time of which is short, namely oxydipentonium chloride (Brevatonal). At the doses used, this curarizer brings about respiratory depression which, in turn, gives rise to a hypoxi-hypercapnic syndrome.
A compound capable of protecting the brain during this short period of hypoxia ensures survival. The compounds are administered to groups of 10 mice one hour before the injection of the curarizer. At the same time, a control group of 10 mice received physiological salt solution before the curarizer. This test has also been developed in our laboratories (see S. LEVIS et al., Arch.Int.Pharmacodyn.Therap.93, (1953,no. 1), 46-54).

Where [6] appears, read: ip, 35 min, rat, intraperitoneal, 0.32 mM/kg, read-out: Number of animals which responded positively to the test, in relation to the number of animals tested (converted).
Where [7] appears, read: rat, subcutaneous, tested 24 hours later, read-out: Active dose mM/kg (minimum dose lowering the stimulus below 11 graduations; mM = millimole).
[8] abbreviates: rat, subcutaneous, tested 24 hours later, read-out: Active dose mg/kg (minimum dose lowering the stimulus below 11 graduations).
Where [9] appears, read: Rattus norvegicus, ip, read-out: Active dose mM/kg (minimum active dose).
Where [10] appears, read: Rattus norvegicus, ip, read-out: Active dose mg/kg (minimum active dose).
The mark [11] stands for this setting: iv, i.v., read-out: LD50 mg/kg (rat).
The mark [12] stands for this setting: iv, i.v., read-out: LD50 - mM/kg.
Setting [13] is: po, per os, read-out: LD50 mg/kg (rat).
The mark [14] stands for this setting: po, per os, read-out: LD50 - mM/kg.
The mark [15] stands for this setting: mice, intraperitoneal, 0.1 mM/kg, one hour before the curarizer, control animals 3/20 (1), 1/10 (2, 18, 26), 0/10 (14, 32), 2/10 (28).

The structures appear in SMILES notation. Read-outs that look alike come from different tables or passages of the source.

Consider `CC1C(=O)N(CNC(=O)NCN2CC(c3ccc(Cl)cc3)C(C)C2=O)CC1c1ccc(Cl)cc1` (stereo not drawn) [Compound No. 7, 1,3-bis[(4-p-chlorophenyl-3-methyl-2-oxo-pyrrolidino)methyl]-urea], for which the responders at 320 µM, 320 µmol/kg in series [1] (setting [6]) was 66.7%. In series [2] (setting [7]), the minimal effective dose stood at 5 µmol/kg. For the same compound, the minimal effective dose in series [2] (setting [8]) was determined as 1.01 mg/kg. For the same compound, in series [3], the “Dose mM/kg - mouse (dose which brings about the death of one animal out of eight in Irwin's test)” value (shortened to “Dose mM/kg - mouse”) is recorded as > 3 mM/kg and the “Dose mg/kg (dose which brings about the death of one animal out of eight in Irwin's test)” value (from here on “Dose mg/kg”) is on record as > 1509 mg/kg.

With `CCC(CNC(=O)NCC(CC)N1CCCC1=O)N1CCCC1=O` (stereo not drawn) [compound 22], in series [1] (setting [6]), the responders at 320 µM, 320 µmol/kg was 71.4%. Moreover, the minimal effective dose in series [2] (setting [7]) is 0.02 µmol/kg; in series [2] (setting [8]) it was 0.0067 mg/kg. In series [3], the “Dose mM/kg - mouse” value was > 3 mM/kg. Also, in series [3], the “Dose mg/kg” value is listed as > 1014 mg/kg.

For `CC1CCC(=O)N1CNC(=O)NCN1C(=O)CCC1C` (stereo not drawn) [Compound No. 8, 1,3-bis[(5-methyl-2-oxo-pyrrolidino)methyl]-urea], the responders at 320 µM, 320 µmol/kg in series [1] (setting [6]) was 57.1%. The minimal effective dose in series [2] (setting [7]) stood at 5 µmol/kg. For the same compound, the minimal effective dose in series [2] (setting [8]) stood at 1.41 mg/kg. In series [3], the “Dose mM/kg - mouse” value was > 3 mM/kg and the “Dose mg/kg” value is given as > 746 mg/kg.

As to `CC1CCN(CNC(=O)NCN2CCC(C)C2=O)C1=O` (stereo not drawn) [compound 34, 1,3-bis[(3-methyl-2-oxo-1-pyrrolidino)methyl]-urea], the responders at 320 µM, 320 µmol/kg in series [1] (setting [6]) is 50%. Further, in series [3], the “Dose mM/kg - mouse” value is listed as > 6 mM/kg and the “Dose mg/kg” value is > 1692 mg/kg.

For `O=C(NCN1CCCC1=O)NCN1CCCC1=O` [Compound No. 1, 1,3-bis[(2-oxo-pyrrolidino)methyl]-urea], the minimal effective dose came to 100 µmol/kg in series [1] (setting [9]), 25 mg/kg in series [1] (setting [10]), 0.01 µmol/kg in series [2] (setting [7]) and 0.0025 mg/kg in series [2] (setting [8]). The responders at 100 µM, 25 mg/kg in series [1] (ip, 35 min, rat, intraperitoneal, 0.1 mM/kg (25.0 mg/kg), read-out: Number of animals which responded positively to the test, in relation to the number of animals tested (converted)) was 63.6%. Further, in series [1] (rat, intraperitoneal), the “activity relative to piracetam (spinal fixation time)” value was “more active than piracetam”. Also, the LD50 in series [4] (setting [11]) was > 5600 mg/kg; in series [4] (setting [12]), > 22000 µmol/kg; in series [4] (setting [13]), > 10000 mg/kg; in series [4] (setting [14]), > 39000 µmol/kg. Further, in series [5], the responders at 32 µM, 32 µmol/kg is 70%. The responders at 100 µM, 100 µmol/kg in series [5] is 60%. Besides, in series [5], the responders at 2.5 mg/kg is 33.3%. The “Dose mM/kg - mouse” value in series [3] is listed as > 6 mM/kg. For the same compound, the “Dose mg/kg” value in series [3] is > 1530 mg/kg.

Consider `O=C(NCCCN1CCCC1=O)NCN1CCCC1=O` [Compound No. 2, 1-[(2-oxo-pyrrolidino)methyl]-3-[3-(2-oxo-pyrrolidino)propyl]-urea], for which, in series [5] (setting [15]), the responders at 100 µM, 100 µmol/kg is 60%. Besides, in series [3], the “Dose mM/kg - mouse” value is recorded as > 3 mM/kg and the “Dose mg/kg” value is reported as > 846 mg/kg.

`NC(=O)CN1CCCC1=O` [piracetam, 2-oxo-1-pyrrolidineacetamide, reference compound]: the responders at 320 µM, 320 µmol/kg is 55.6% in series [1] (Rattus norvegicus, ip, 35 min, read-out: Number of animals which responded positively to the test, in relation to the number of animals tested) and 10% in series [5]. Further, the minimal effective dose in series [1] (setting [9]) was found to be 320 µmol/kg; in series [1] (setting [10]), 45 mg/kg; in series [2] (Rattus norvegicus, 24 h, read-out: Active dose mM/kg (minimum dose lowering the stimulus below 11 graduations; mM = millimole)), 2.5 µmol/kg; in series [2] (Rattus norvegicus, 24 h, read-out: Active dose mg/kg (minimum dose lowering the stimulus below 11 graduations)), 3.5 mg/kg. For the same compound, the LD50 was > 8000 mg/kg in series [4] (setting [11]), > 56000 µmol/kg in series [4] (setting [12]), > 10000 mg/kg in series [4] (setting [13]) and > 70000 µmol/kg in series [4] (setting [14]). Moreover, the responders at 142 mg/kg in series [5] was found to be 40%. Besides, in series [5] (mice, intraperitoneal, 454 mg/kg (3.2 mM/kg), one hour before the curarizer, control animals 1/10), the responders at 454 mg/kg came to 80%. The degree of retention result in series [2] (rat, compared with control animals) was “significant degree of retention”.

Take `CC1CC(=O)N(CNC(=O)NCN2C(=O)CC(C)C2C)C1C` (stereo not drawn) [compound 14, 1,3-bis[(4,5-dimethyl-2-oxo-pyrrolidino)methyl]-urea]: in series [5] (setting [15]), the responders at 100 µM, 100 µmol/kg was found to be 50%. The minimal effective dose in series [2] (setting [7]) turned out to be 10 µmol/kg. Besides, the minimal effective dose in series [2] (setting [8]) amounted to 3.1 mg/kg. Moreover, in series [3], the “Dose mM/kg - mouse” value was > 3 mM/kg and the “Dose mg/kg” value was 930 mg/kg.

For the compound `O=C(NCCN1CCCC1=O)NCCN1CCCC1=O` [compound 20, 1,3-bis[2-(2-oxo-pyrrolidino)ethyl]-urea], the responders at 320 µM, 320 µmol/kg in series [1] (setting [6]) is 42.9%. For the same compound, the minimal effective dose was 0.05 µmol/kg in series [2] (setting [7]) and 0.014 mg/kg in series [2] (setting [8]). Besides, in series [3], the “Dose mM/kg - mouse” value is > 3 mM/kg. Besides, in series [3], the “Dose mg/kg” value is > 846 mg/kg.

In the case of `O=C1CCC(c2ccc(Cl)cc2)CN1CNC(=S)NCN1CC(c2ccc(Cl)cc2)CCC1=O` (stereo not drawn) [compound 24, 1,3-bis[(5-p-chlorophenyl-2-oxo-piperidino)methyl]-2-thiourea], the responders at 320 µM, 320 µmol/kg in series [1] (setting [6]) was 42.9%. Also, in series [3], the “Dose mM/kg - mouse” value is given as > 3 mM/kg and the “Dose mg/kg” value is given as > 1039 mg/kg.

Take `O=C(NCN1CCCCCC1=O)NCN1CCCCCC1=O` [Compound No. 4, 1,3-bis[(hexahydro-2-oxo-1H-azepin-1-yl)methyl]-urea]: the responders at 320 µM, 320 µmol/kg in series [1] (setting [6]) was 66.7%. In series [2] (setting [7]), the minimal effective dose was 0.005 µmol/kg. Further, in series [2] (setting [8]), the minimal effective dose came to 0.0015 mg/kg. In series [3], the “Dose mM/kg - mouse” value was found to be 3 mM/kg and the “Dose mg/kg” value amounted to 930 mg/kg.

For `O=C(NCCCN1CCCC1=O)NCCCN1CCCC1=O` [compound 23, 1,3-bis[3-(2-oxo-pyrrolidino)propyl]-urea], the responders at 320 µM, 320 µmol/kg in series [1] (setting [6]) is 50%. Moreover, in series [3], the “Dose mM/kg - mouse” value is > 3 mM/kg and the “Dose mg/kg” value is recorded as 931.2 mg/kg.

Turning to `CC(NC(=O)NC(C)N1CCCC1=O)N1CCCC1=O` (stereo not drawn) [Compound No. 11, 1,3-bis[1-(2-oxo-pyrrolidino)ethyl]-urea], the responders at 32 µM, 32 µmol/kg in series [5] (mice, intraperitoneal, 0.032 mM/kg, one hour before the curarizer, control animals 3/20 (compound 1), 1/10 (compound 11)) worked out at 70%. In series [2] (setting [7]), the minimal effective dose is 0.005 µmol/kg. Moreover, in series [2] (setting [8]), the minimal effective dose was 0.0014 mg/kg. For the same compound, in series [3], the “Dose mM/kg - mouse” value is reported as > 3 mM/kg and the “Dose mg/kg” value is reported as > 846 mg/kg.

Source of the values: US4216221A, “1,3-Disubstituted (2-thio)ureas” (U C B, Societe Anonyme, priority 1977, dated 1980).
